This is an account of results in patent US20140235585A1, “SUBSTITUTED DIARYL DERIVATIVES AS SPHINGOSINE RECEPTOR MODULATORS” (ALLERGAN, INC., priority 2013, published 2014).

T1 sequence (P21453 whole entry): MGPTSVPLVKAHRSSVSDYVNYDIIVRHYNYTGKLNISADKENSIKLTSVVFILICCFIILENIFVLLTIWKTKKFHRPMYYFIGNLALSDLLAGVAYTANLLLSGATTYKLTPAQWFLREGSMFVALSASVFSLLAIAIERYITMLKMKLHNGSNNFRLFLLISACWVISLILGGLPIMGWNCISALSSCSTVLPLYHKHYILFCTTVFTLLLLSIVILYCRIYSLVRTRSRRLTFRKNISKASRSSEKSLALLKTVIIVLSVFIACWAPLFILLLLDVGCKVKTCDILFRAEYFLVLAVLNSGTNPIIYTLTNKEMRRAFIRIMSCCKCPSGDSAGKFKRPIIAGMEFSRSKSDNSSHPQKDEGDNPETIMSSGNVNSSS

This assay concerns the target T1, human S1P1 receptor (Homo sapiens, UniProt P21453).
T1 construct: expressed in transfected cells; membranes from cells stably expressing the S1P1 receptor
As to the kind of experiment: GTP γ35S binding assay for S1P1 activity. In kind it is biochemical. The following applies: Activity potency: S1P1 receptor from GTP γ35S; membranes of cells stably expressing the S1P1 receptor; agonist-induced binding. How it is done: Compounds were tested for S1P1 activity using the GTP γ^35S binding assay. These compounds may be assessed for their ability to activate or block activation of the human S1P1 receptor in cells stably expressing the S1P1 receptor. GTP γ^35S binding was measured in the medium containing (mM) HEPES 25, pH 7.4, MgCl2 10, NaCl 100, dithitothreitol 0.5, digitonin 0.003%, 0.2 nM GTP γ^35S, and 5 μg membrane protein in a volume of 150 μl. Test compounds were included in the concentration range from 0.08 to 5,000 nM unless indicated otherwise. Membranes were incubated with 100 μM 5′-adenylylimmidodiphosphate for 30 min, and subsequently with 10 μM GDP for 10 min on ice. Drug solutions and membrane were mixed, and then reactions were initiated by adding GTP γ^35S and continued for 30 min at 25° C. Reaction mixtures were filtered over Whatman GF/B filters under vacuum, and washed three times with 3 mL of ice-cold buffer (HEPES 25, pH7.4, MgCl2 10 and NaCl 100). Filters were dried and mixed with scintillant, and counted for ^35S activity using a β-counter. Agonist-induced GTP γ^35S binding was obtained by subtracting that in the absence of agonist. Binding data were analyzed using a non-linear regression method. In case of antagonist assay, the reaction mixture contained 10 nM S1P in the presence of test antagonist at concentrations ranging from 0.08 to 5000 nM.
(In general: GTPγS resists hydrolysis and so accumulates on activated G proteins.)
As a reminder, the EC50 is the concentration that produces a half-maximal response. Low values mean a more potent agent, high ones a less potent agent. Regarding `O=P(O)(O)CCCNCc1ccc(CC/N=c2\scc(-c3ccccc3)n2-c2ccccc2)cc1` [Compound 1, (3-{[4-(2-{[(2Z)-3,4-diphenyl-1,3-thiazol-2(3H)-ylidene]amino}ethyl)benzyl]amino}propyl)phosphonic acid], it took 31 nM to reach a half-maximal effect (EC50).
Compound `O=C(O)CCNCc1ccc(CC/N=c2\scc(-c3ccccc3)n2-c2ccccc2)cc1` [Compound 2, 3-{[4-(2-{[(2Z)-3,4-diphenyl-1,3-thiazol-2(3H)-ylidene]amino}ethyl)benzyl]amino}propanoic acid] gave an EC50 of 658 nM.
For `O=P(O)(O)CCCNCc1ccc(CCSc2ncc(-c3ccccc3)n2-c2ccccc2)cc1` [Compound 3, {3-[(4-{2-[(1,5-diphenyl-1H-imidazol-2-yl)thio]ethyl}benzyl)amino]propyl}phosphonic acid] the value was 86 nM.
